{"source": "patent US10556860B2", "about": "“hTERT modulators and methods of use” (Arizona Board of Regents on Behalf of the University of …, priority 2015, dated 2020)", "key": {"[1]": {"test_system": "BCL2 mRNA in WT and G146A melanoma cells", "assay": "qPCR of BCL2 mRNA in melanoma cells", "format": "cell-based, human", "conditions": "72 h", "procedure": "Cell cultures. MCF7 and melanoma (UACC 383) cells were cultured in media of RPMI-1640 with 10% FBS and 1% penicillin/streptomycin. For melanoma cells UACC 2512, UACC 3090, UACC 1729, and UACC 2528, 20% FBS was included in the RPMI media instead of 10% FBS. Cells were incubated at 37° C. with 5% CO2.\nqPCR. MCF7 and melanoma cells were treated with GTC365 and BRACO-19 for 72 h. Total RNA was extracted using an RNeasy mini-prep kit (Qiagen) and quantitated by measuring absorbance at 260 nm. cDNA was synthesized using a Takara PrimeScript™ RT Reagent Kit with gDNA eraser and then used as a template for qPCR. The qPCR was performed using Kapa Probe Fast qPCR Master Mix with ABI Taqman probes of hTERT (Hs00972656_m1), BCL2 (HS00608023_m1, FAM-labeled) or MYC (Hs00153408_m1), and GAPDH (Hs02758991_g1, VIC-labeled). The Ct values were measured by running Rotor-Gene Q, and the relative quantity of hTERT, BCL2, and MYC mRNA was obtained compared to GAPDH as an internal control.\nTo determine the cellular effect of GTC365 on proliferation as well as suppression of the activation of hTERT by G124A, G124/125A, G138/139A, and G146A mutants, melanoma cell lines were used alongside a WT cell line. All mutants increased the mRNA level of hTERT, compared to WT melanoma cells, in the 6.6-34-fold range. […]"}, "[2]": {"test_system": "UACC-903, a G124A mutant melanoma cell line", "assay": "Viability of G124A mutant melanoma cells", "format": "cell-based, human", "conditions": "72 h", "procedure": "FIGS. 13A-13C are a set of graphs showingselective reduction in viability (A) and hTERT expression (B) in melanoma cells carrying hTERT core promotor mutations. NHM-002 (normal human melanocytes) and a G124A mutant cell line were treated with vehicle, 1.25, 2.5, and 5 μM GTC365 for 72 h. Viability was reduced in hTERT mutant melanoma cells by 50% (left). […] (C) Differential response to GTC365 in WT and promoter mutant cell lines.\nNext, to assess the selectivity of GTC365 for hTERT-dependent cancer cells relative to normal precursorcells, we compared the effects of a range of […] on viability at 72 h in normal humanmelanocytes (NHM-002) relative to those of UACC-903, aG124A mutant (FIG. 13A). […] To confirm that the reduction in cell viability was aresult of hTERT downregulation, we performed reverse transcription and qPCR to measure the mRNA level of hTERT expression in cells treated with DMSO or 5 μMGTC365. hTERT expression was reduced by 41% in themelanoma cell line after 72 h but was undetectable in normalmelanocytes, even in the absence of GTC365 (FIG. 13B). Finally, tobroadly assess the selectivity of GTC365 for hTERT promotermutant versus WT cells, we conducted a 6-point 72 h MTSproliferation assay to determine EC50s in 14 additional melanoma cell lines with characterized TERT promoter status([…]) (FIG. 13C). […]"}}, "data": [{"smiles": "N=C(N)NCCCS(=O)(=O)Nc1ccc(Nc2c3ccccc3nc3cc([N+](=O)[O-])ccc23)cc1", "note": "[GTC365]", "values": [{"measurement": "mRNA level of BCL2", "setting": "[1]", "result": "decreased"}, {"measurement": "viability", "setting": "[2]; 5 μM", "result": "below 50%"}, {"measurement": "reduction of viability", "setting": "[2]; hTERT mutant melanoma cells, up to 5 μM", "result": 50, "unit": "%"}]}]}
